Experimental data: patent US11052090B2, “Use of TREM-1 inhibitors for treatment, elimination and eradication of HIV-1 infection” (priority 2015, dated 2021)

Columns and labels:
HIV-1 (BaL) = assay: microbe, parasite or virus in culture; assay type: cell-based
Description: Macrophages can be isolated as follows: Monocytes can be isolated from buffy coats of HIV-1 negative, HBV/HCV-negative donors with density gradient centrifugation coupled with enrichment for CD14+ monocytes with Rosette Sep antibody cocktail (Stem Cell Technologies, Vancouver, British Columbia). Cells can be seeded at a concentration of 1.0×10^6 cells/well for 1 hr at 37° C. and 5% CO2 to confer plastic adherence prior to repeated washes with 1×PBS. Macrophages can be maintained in medium containing 100 U/ml macrophage colony-stimulating factor (m-CSF, R&D Systems, Minneapolis, Minn.), supplemented with 20% fetal calf serum (Atlanta Biologicals, Lawrenceville, Ga.) and 1% penicillin/streptomyocin (Invitrogen, Carlsbad, Calif.) for 7 days (37° C., 5% CO2) prior to testing.
Macrophage infections: Macrophages can be cultured as described above for 7 days. For acute infection, macrophages can be serum starved for 8 hrs prior to infection and cultured for 2 hr in medium containing various concentrations of AZT (positive control) or Tofacitinib or Jakafi for 2 hr prior to removal of drug-containing medium and 4 hr infection with HIV-1BaL at 0.1 MOI in the absence of drug. Four hr after infection, virus can be removed and drug-containing medium returned to the cultures. Supernatants can be collected on day 7 post-infection and HIV-1 p24 can be quantified via ELISA (Zeptometrix Corporation, Buffalo, N.Y.). EC50 analysis can be performed using CalcuSyn software (BioSoft Corporation, Cambridge, UK).
Extracellular virus was quantified 7 days after infection (HIV-1 p24 ELISA).

[1] = system: primary human macrophages; assay: Toxicity in primary human macrophages (zombie violet live/dead dye, FACS); assay type: cell-based; conditions: Macrophage
HIV-1 = system: HIV-1
Description: Human PBM cells can be isolated as follows: Lymphocytes can be isolated from buffy coats derived from healthy donors. Activated lymphocytes can be maintained for 72 hr in medium supplemented with 6 μg/ml phytohemagglutinin (PHA) (Cape Cod associates, East Falmouth, Mass.). Media can be comprised of RPMI media supplemented with 20% fetal calf serum, 1% penicillin/streptomyocin and 2% L-glutamine (Sigma Aldrich, San Jose, Calif.).
Human PBM cell infections: Testing can be performed in duplicate with at least 3 independent assays. Cells can be incubated in RPMI medium (HyClone, Logan, Utah) containing HR-IL2 (26.5 units/ml) and 20% fetal calf serum. Infections can be performed by adding HIV-ILA' followed by a further incubation at 37° C., 5% CO2, 1 hr prior to addition of drugs. Assays can be performed in 24 well plates (BD Biosciences, Franklin Lakes, N.J.). One ml of supernatant can be collected after 5 days in culture and then centrifuged at 12,000 rpm for 2 hr at 4° C. in a Jouan Br43i (Thermo Electron Corp., Marietta, Ohio). The product of the RT assay can be quantified using a Packard harvester and direct beta counter and the data can be analyzed as previously described (Schinazi et al., 1990).

[2] = system: primary human lymphocytes; assay: Proliferation and viability of activated PBM cells / PHA or PHA+IL-2 stimulated primary human lymphocytes; assay type: cell-based; conditions: for Viability, proliferation or total cell number not affected up to: human
Description: The toxicity of the compounds was assessed in Vero, human PBM, CEM (human lymphoblastoid), as described previously (see Schinazi R. F., Sommadossi J.-P., Saalmann V., Cannon D. L., Xie M.-Y., Hart G. C., Smith G. A. & Hahn E. F. Antimicrob. Agents Chemother. 1990, 34, 1061-67), and also in MØ cells. Cycloheximide was included as positive cytotoxic control, and untreated cells exposed to cell culture medium were included as negative controls. […]
Cell proliferation was evaluated in activated PBM cells incubated for 5 days with various concentrations of Tofacitinib and Jakafi, with cycloheximide as a positive control, and a “cells plus media” control used as well. The data is shown in FIG. 2, in terms of total cell number (10^6 cells) versus μM drug in medium.
Cell viability was evaluated in activated PBM cells incubated for 5 days with various concentrations of Tofacitinib and Jakafi, with cycloheximide as a positive control, and a “cells plus media” control used as well.
For all experiments, cells were incubated with media alone or drug-containing medium for 5 days prior to assessment of cell count and viability. […] Data are mean and standard deviations for at least three independent experiments conducted with at least four pooled donors, and duplicates within each experiment. Dotted bar represents mean cell count or viability for cells maintained in drug-free medium.

MØ cells = assay type: cell-based; conditions: human
Description: The toxicity of the compounds was assessed in Vero, human PBM, CEM (human lymphoblastoid), as described previously (see Schinazi R. F., Sommadossi J.-P., Saalmann V., Cannon D. L., Xie M.-Y., Hart G. C., Smith G. A. & Hahn E. F. Antimicrob. Agents Chemother. 1990, 34, 1061-67), and also in MØ cells. Cycloheximide was included as positive cytotoxic control, and untreated cells exposed to cell culture medium were included as negative controls.
The cytotoxicity IC50 was obtained from the concentration-response curve using the median effective method described previously (see Chou T.-C. & Talalay P. Adv. Enzyme Regul. 1984, 22, 27-55; Belen'kii M. S. & Schinazi R. F. Antiviral Res. 1994, 25, 1-11).

HepG2 cells = conditions: 10 μM; cited from earlier work
mice = conditions: mouse, in vivo; cited from earlier work

In the case of Cc1cn([C@H]2C[C@H](N=[N+]=[N-])[C@@H](CO)O2)c(=O)[nH]c1=O [AZT, 3′-azido-3′-deoxythymidine], the “Inhibition of HIV-1 replication in primary human macrophages” value (HIV-1 (BaL); HIV-1 BaL, p24 ELISA day 7) is reported as “nanomolar inhibition”, the EC50 (HIV-1 (BaL); Human immunodeficiency virus 1, Macrophage, 168 h, HIV-1 BaL, extracellular virus 7 days after infection, read-out: Antiviral potency in primary human macrophages (EC50)) is reported as 10 ± 20 nM and the EC90 (HIV-1 (BaL); Human immunodeficiency virus 1, Macrophage, 168 h, HIV-1 BaL, extracellular virus 7 days after infection, read-out: Antiviral potency in primary human macrophages (EC90)) is reported as 700 ± 200 nM. It also gave an IC50 [1] of over 100 µM.

For N#CC[C@H](C1CCCC1)n1cc(-c2ncnc3[nH]ccc23)cn1 [Jakafi], the “Inhibition of HIV-1 replication in MØ cells” value (HIV-1 (BaL)) was “sub-micromolar”, the “Inhibition of HIV-1 replication in PBM cells” value (HIV-1) was “sub-micromolar” and the “Proliferation versus cells exposed to media alone” value [2] was “not significantly different”. For the same compound, the Total cell proliferation [2] was “do not affect”, the Total cell viability [2] was “do not affect” and the “Viability versus cells exposed to media alone” value [2] was “not significantly different”. The “Viability, proliferation or total cell number not affected up to” value ([2]; 5 days) was “around 10 μM” and the “Viability, proliferation or total cell number not affected up to” value (MØ cells) was “around 10 μM”.

In the case of C[C@@H]1CCN(C(=O)CC#N)C[C@@H]1N(C)c1ncnc2[nH]ccc12 [Tofacitinib, 3-{(3R,4R)-4 methyl-3-[methyl-(7H-pyrrolo[2,3-d]pyrimidin-4-yl)-amino]-piperidin-1-yl}-3-oxo-propionitrile], the “Inhibition of HIV-1 replication in MØ cells” value (HIV-1 (BaL)) is reported as “sub-micromolar”, the “Inhibition of HIV-1 replication in PBM cells” value (HIV-1) is reported as “sub-micromolar” and the “Proliferation versus cells exposed to media alone” value [2] is reported as “not significantly different”. The Total cell proliferation [2] was “do not affect”, the Total cell viability [2] was “do not affect” and the “Viability versus cells exposed to media alone” value [2] was “not significantly different”. The “Viability, proliferation or total cell number not affected up to” value ([2]; 5 days) was “around 10 μM” and the “Viability, proliferation or total cell number not affected up to” value (MØ cells) was “around 10 μM”.

In the case of C[C@@H]1C[C@@H]([C@H](O)CC2CC(=O)NC(=O)C2)C(=O)[C@@H](C)C1 [cycloheximide], the “Cell count and viability (positive control)” value ([2]; stimulated lymphocytes, 5 days) is reported as “toxic in a dose dependent manner”.

In the case of O=c1[nH]c(=O)n([C@@H]2O[C@H](CO)[C@@H](O)[C@@H]2F)cc1I [fialuridine, 1,2′-deoxy-2′-fluoro-1-D-arabinofuranosly-5-iodo-uracil], the “Mitochondrial morphology in electron micrographs” value (HepG2 cells) is given as “enlarged mitochondria with morphological changes consistent with mitochondrial dysfunction”.

In the case of “LR6-1: LQEEDA, SEQ ID NO 4 (listed as Homo sapiens)”, the “Protection of mice against polymicrobial sepsis” value (“Protection of mice” below) (mice) is listed as “protect”.

In the case of “LR6-2: EDAGEY, SEQ ID NO 5 (listed as Homo sapiens)”, the “Protection of mice” value (mice) is listed as “protect”.

In the case of “LR6-3: GEYGCM, SEQ ID NO 6 (listed as Homo sapiens)”, the “Protection of mice” value (mice) is listed as “protect”.
